From patent US20160262390A1, “FIELD APPLICATION OF SUGARS TO INCREASE CROP YIELD” (Minn-Dak Farmers Cooperative, priority 2015, published 2016)

Columns and labels:
sugarbeets = assay: Pre-planting sugar application on sugarbeets, Hickson; format: in vivo, sugarbeet; details: for Recoverable Sugar Yield / Recoverable Sugar Yield Increase Compared to Check Average / Sugarbeet Yield: ND
Description: (§1) The field trials were conducted simultaneously in two different planting locations for each of the crops. One location was near the community of Foxhome in Wilkin County, Minnesota (hereafter referred to as “Foxhome”) while the second location was near the community of Hickson in Cass County, North Dakota (hereafter referred to as “Hickson”). The Foxhome and Hickson locations are on opposite sides of the Red River along the border of Minnesota and North Dakota and separated by a distance exceeding 40 miles. Generally, the Foxhome location has heavier clay loam soil conditions while Hickson has sandy loam soil conditions.
(§2) At each of the Foxhome and Hickson locations, a total of thirty two (32) treatments were conducted for each crop (sugarbeets, soybeans, corn, wheat). Each treatment was replicated four times arranged in a Randomized Complete Block (RCB) Design in the same field. Each replication consisted of a plot measuring twenty five (25) feet in length and eleven (11) feet in width. In selecting the particular seed types for evaluation, popular commercial varieties to the region were utilized. For the row crops (sugarbeets, soybeans, corn) each replication included a width of six (6) rows with twenty two (22) inch row spacing and having a row length of twenty five (25) feet. The wheat was planted in accordance with standard commercial practices. To reduce/eliminate any treatment impacts between adjacent plots for the crops, only the four (4) interior rows of each plot were treated and evaluated for row crops, while for wheat, only the interior 7.33 feet of each plot were treated and evaluated. With the exception of the treatment program applied to the individual plots, which will be discussed below, conventional commercial growing practices for each planting location were otherwise followed during the field trials. While the individual plots at the same location, Hickson or Foxhome, experienced essentially the same growing conditions throughout the season, there were various differences associated with localized precipitation, general growing conditions, soil classification and the like, which contributed to performance differences between the Hickson and Foxhome locations.
(§3) The treatment regimen at each location for each of the tested crops included two (2) untreated treatments (Treatments 31 and 32) in which no sugar was applied and constitute the control elements. […] Six (6) treatments (Treatments 13-18) included the liquid application of high fructose corn syrup (hereafter “HFCS”) at varying rates. Six treatments (Treatments 19-24) included the liquid application of dextrose (hereafter “LIQDEX”) at varying rates. Six (6) treatments (Treatments 25-30) included the application of powdered cellulose (hereafter “POWCEL”) at varying rates. For the sugar applied in a solid form, granulated or powdered, field application was conducted via conventional broadcast spreading. For the sugar applied in a liquid form, a liquid concentrate was mixed and diluted with water in a tank and a conventional sprayer was configured such that the liquid was sprayed so as to have the same sugar equivalent (measured in pounds/per acre) as the sugar in solid form. Regardless of whether the sugar was applied as a solid or liquid, the sugar was applied directly onto the soil before spring tillage, lightly worked into the ground and followed by planting of the crop seed in the treated ground. A summary of application rates for each plot treatments are contained in Table 7 below and were used consistently with each of the crops (sugarbeets, soybeans, corn, wheat).
To test the impact of pre-planting application rates and sugar source on sugarbeets, identical field trials using Crystal® brand ACH 260 sugarbeet seed were conducted at the Foxhome and Hickson locations. Planting of the sugarbeet seed and harvest of the sugarbeets were conducted on as close to the same dates as practical so as to have essentially the same length growing season. […]

soybeans [1] = assay: Pre-planting sugar application on soybeans, Foxhome; format: in vivo, soybean; details: for Yield / Yield Increase Compared to Check: MN
Description: as §1, §2, §3
(§4) To test the impact of pre-planting application rates and sugar source on soybeans, identical field trials using Syngenta brand soybean seed were conducted at the Foxhome and Hickson locations. Planting of the soybean seed and harvest of the soybeans were conducted on approximately the same dates so as to have essentially the same growing season. […]

soybeans [2] = assay: Pre-planting sugar application on soybeans, Hickson; format: in vivo, soybean; details: for Yield / Yield Increase Compared to Check Average: ND
Description: as §1, §2, §3, §4

wheat [3] = assay: Pre-planting sugar application on wheat, Foxhome; format: in vivo; details: for Yield / Yield Increase Compared to Check Average: MN
Description: as §1, §2, §3
as §4, with “wheat,” for “soybeans,”, “Westbred Mayville wheat” for “Syngenta brand soybean”, “wheat” for “soybean”, “wheat” for “soybeans”, “on” for “on approximately”

wheat [4] = assay: Pre-planting sugar application on wheat, Hickson; format: in vivo; details: for Yield / Yield Increase Compared to Check: ND
Description: as §1, §2, §3
as §4, with “wheat,” for “soybeans,”, “Westbred Mayville wheat” for “Syngenta brand soybean”, “wheat” for “soybean”, “wheat” for “soybeans”, “on” for “on approximately”

[5] = six rates (25-250 pounds/Acre) per sugar, thirty in all

With `OC[C@H]1O[C@@](CO)(O[C@H]2O[C@H](CO)[C@@H](O)[C@H](O)[C@H]2O)[C@@H](O)[C@@H]1O` [GS, sucrose] the “Recoverable Sugar Yield” value (sugarbeets; pre-planting 25 pounds/Acre) was 9560 Pounds/Acre, the “Recoverable Sugar Yield Increase Compared to Check Average” value (sugarbeets; pre-planting 25 pounds/Acre) was −2.54% and the “Sugarbeet Yield” value (sugarbeets; pre-planting 25 pounds/Acre) was 32.73 Tons/Acre. The “Recoverable Sugar Yield” value (sugarbeets; pre-planting 50 pounds/Acre) was 10509 Pounds/Acre, the “Recoverable Sugar Yield Increase Compared to Check Average” value (sugarbeets; pre-planting 50 pounds/Acre) was 7.14% and the “Sugarbeet Yield” value (sugarbeets; pre-planting 50 pounds/Acre) was 35.37 Tons/Acre. The “Recoverable Sugar Yield” value (sugarbeets; pre-planting 100 pounds/Acre) was 9360 Pounds/Acre, the “Recoverable Sugar Yield Increase Compared to Check Average” value (sugarbeets; pre-planting 100 pounds/Acre) was −4.58% and the “Sugarbeet Yield” value (sugarbeets; pre-planting 100 pounds/Acre) was 31.94 Tons/Acre. The “Recoverable Sugar Yield” value (sugarbeets; pre-planting 150 pounds/Acre) was 9877 Pounds/Acre, the “Recoverable Sugar Yield Increase Compared to Check Average” value (sugarbeets; pre-planting 150 pounds/Acre) was 0.69% and the “Sugarbeet Yield” value (sugarbeets; pre-planting 150 pounds/Acre) was 32.34 Tons/Acre. For the same compound, the “Recoverable Sugar Yield” value (sugarbeets; pre-planting 200 pounds/Acre) was 9426 Pounds/Acre, the “Recoverable Sugar Yield Increase Compared to Check Average” value (sugarbeets; pre-planting 200 pounds/Acre) was −3.90% and the “Sugarbeet Yield” value (sugarbeets; pre-planting 200 pounds/Acre) was 31.37 Tons/Acre. For the same compound, the “Recoverable Sugar Yield” value (sugarbeets; pre-planting 250 pounds/Acre) was 9587 Pounds/Acre, the “Recoverable Sugar Yield Increase Compared to Check Average” value (sugarbeets; pre-planting 250 pounds/Acre) was −2.26% and the “Sugarbeet Yield” value (sugarbeets; pre-planting 250 pounds/Acre) was 30.7 Tons/Acre. For the same compound, the “number of treatments showing negative yield benefits compared to check average” value (sugarbeets; six rates per sugar) was “four of the six”, the Yield (soybeans [1]; pre-planting 25 pounds/Acre) was 70.03 Bushels/Acre and the “Yield Increase Compared to Check” value (soybeans [1]; pre-planting 25 pounds/Acre) was 2.17%. For the same compound, the Yield (soybeans [1]; pre-planting 50 pounds/Acre) was 70.87 Bushels/Acre, the “Yield Increase Compared to Check” value (soybeans [1]; pre-planting 50 pounds/Acre) was 3.40% and the Yield (soybeans [1]; pre-planting 100 pounds/Acre) was 70.78 Bushels/Acre. For the same compound, the “Yield Increase Compared to Check” value (soybeans [1]; pre-planting 100 pounds/Acre) was 3.27%, the Yield (soybeans [1]; pre-planting 150 pounds/Acre) was 71.45 Bushels/Acre and the “Yield Increase Compared to Check” value (soybeans [1]; pre-planting 150 pounds/Acre) was 4.25%. For the same compound, the Yield (soybeans [1]; pre-planting 200 pounds/Acre) was 67.22 Bushels/Acre, the “Yield Increase Compared to Check” value (soybeans [1]; pre-planting 200 pounds/Acre) was −1.93% and the Yield (soybeans [1]; pre-planting 250 pounds/Acre) was 66.99 Bushels/Acre. The “Yield Increase Compared to Check” value (soybeans [1]; pre-planting 250 pounds/Acre) was −2.26%, the “number of treatments showing yield improvement compared to check treatment 31” value (soybeans [1]; [5]) was “four of the six” and the Yield (soybeans [2]; pre-planting 25 pounds/Acre) was 62.54 Bushels/Acre. The “Yield Increase Compared to Check Average” value (soybeans [2]; pre-planting 25 pounds/Acre) was 1.28%, the Yield (soybeans [2]; pre-planting 50 pounds/Acre) was 63.6 Bushels/Acre and the “Yield Increase Compared to Check Average” value (soybeans [2]; pre-planting 50 pounds/Acre) was 3.00%. The Yield (soybeans [2]; pre-planting 100 pounds/Acre) was 62.06 Bushels/Acre, the “Yield Increase Compared to Check Average” value (soybeans [2]; pre-planting 100 pounds/Acre) was 0.50% and the Yield (soybeans [2]; pre-planting 150 pounds/Acre) was 64.21 Bushels/Acre. For the same compound, the “Yield Increase Compared to Check Average” value (soybeans [2]; pre-planting 150 pounds/Acre) was 3.98%, the Yield (soybeans [2]; pre-planting 200 pounds/Acre) was 62.15 Bushels/Acre and the “Yield Increase Compared to Check Average” value (soybeans [2]; pre-planting 200 pounds/Acre) was 0.65%. The Yield (soybeans [2]; pre-planting 250 pounds/Acre) was 61.12 Bushels/Acre, the “Yield Increase Compared to Check Average” value (soybeans [2]; pre-planting 250 pounds/Acre) was −1.02% and the “number of treatments showing yield improvement compared to check average” value (soybeans [2]; [5]) was “five of the six”. The Yield (wheat [3]; pre-planting 25 pounds/Acre) was 73.58 Bushels/Acre, the “Yield Increase Compared to Check Average” value (wheat [3]; pre-planting 25 pounds/Acre) was 13.55% and the Yield (wheat [3]; pre-planting 50 pounds/Acre) was 70.01 Bushels/Acre. The “Yield Increase Compared to Check Average” value (wheat [3]; pre-planting 50 pounds/Acre) was 8.04%, the Yield (wheat [3]; pre-planting 100 pounds/Acre) was 59.45 Bushels/Acre and the “Yield Increase Compared to Check Average” value (wheat [3]; pre-planting 100 pounds/Acre) was −8.26%. The Yield (wheat [3]; pre-planting 150 pounds/Acre) was 66.65 Bushels/Acre, the “Yield Increase Compared to Check Average” value (wheat [3]; pre-planting 150 pounds/Acre) was 2.85% and the Yield (wheat [3]; pre-planting 200 pounds/Acre) was 59.64 Bushels/Acre. For the same compound, the “Yield Increase Compared to Check Average” value (wheat [3]; pre-planting 200 pounds/Acre) was −7.96%, the Yield (wheat [3]; pre-planting 250 pounds/Acre) was 59.73 Bushels/Acre and the “Yield Increase Compared to Check Average” value (wheat [3]; pre-planting 250 pounds/Acre) was −7.82%. For the same compound, the “number of treatments showing yield improvement compared to check average” value (wheat [3]; [5]) was “three of the six”, the Yield (wheat [4]; pre-planting 25 pounds/Acre) was 51.82 Bushels/Acre and the “Yield Increase Compared to Check” value (wheat [4]; pre-planting 25 pounds/Acre) was 5.45%. The Yield (wheat [4]; pre-planting 50 pounds/Acre) was 52.47 Bushels/Acre, the “Yield Increase Compared to Check” value (wheat [4]; pre-planting 50 pounds/Acre) was 6.78% and the Yield (wheat [4]; pre-planting 100 pounds/Acre) was 49.94 Bushels/Acre. The “Yield Increase Compared to Check” value (wheat [4]; pre-planting 100 pounds/Acre) was 1.63%, the Yield (wheat [4]; pre-planting 150 pounds/Acre) was 44.54 Bushels/Acre and the “Yield Increase Compared to Check” value (wheat [4]; pre-planting 150 pounds/Acre) was −9.36%. The Yield (wheat [4]; pre-planting 200 pounds/Acre) was 50.25 Bushels/Acre, the “Yield Increase Compared to Check” value (wheat [4]; pre-planting 200 pounds/Acre) was 2.26% and the Yield (wheat [4]; pre-planting 250 pounds/Acre) was 50.40 Bushels/Acre. For the same compound, the “Yield Increase Compared to Check” value (wheat [4]; pre-planting 250 pounds/Acre) was 2.56% and the “number of treatments showing yield improvement compared to check average” value (wheat [4]; [5]) was “five of the six”.
